Data: ChEMBL document CHEMBL1138333, “Discovery of the first nonpeptidic, small-molecule, highly selective somatostatin receptor subtype 5 antagonists: a chemogenomics approach” (J Med Chem, 2007)
Converted amounts (≈) assume the structure as drawn.

Key:
[1] = molecular target: T1, Somatostatin receptor type 5 (Homo sapiens, UniProt P35346); test: Displacement of [125I]11-Tyr somatostatin-14 from human SST5R expressed in CHO cells; assay type: cell-based
[2] = molecular target: Voltage-gated inwardly rectifying potassium channel KCNH2 (Homo sapiens, UniProt Q12809); test: Inhibition of hERG channel; assay type: toxicity
Voltage-gated inwardly rectifying potassium channel KCNH2, sequence (Q12809 whole entry): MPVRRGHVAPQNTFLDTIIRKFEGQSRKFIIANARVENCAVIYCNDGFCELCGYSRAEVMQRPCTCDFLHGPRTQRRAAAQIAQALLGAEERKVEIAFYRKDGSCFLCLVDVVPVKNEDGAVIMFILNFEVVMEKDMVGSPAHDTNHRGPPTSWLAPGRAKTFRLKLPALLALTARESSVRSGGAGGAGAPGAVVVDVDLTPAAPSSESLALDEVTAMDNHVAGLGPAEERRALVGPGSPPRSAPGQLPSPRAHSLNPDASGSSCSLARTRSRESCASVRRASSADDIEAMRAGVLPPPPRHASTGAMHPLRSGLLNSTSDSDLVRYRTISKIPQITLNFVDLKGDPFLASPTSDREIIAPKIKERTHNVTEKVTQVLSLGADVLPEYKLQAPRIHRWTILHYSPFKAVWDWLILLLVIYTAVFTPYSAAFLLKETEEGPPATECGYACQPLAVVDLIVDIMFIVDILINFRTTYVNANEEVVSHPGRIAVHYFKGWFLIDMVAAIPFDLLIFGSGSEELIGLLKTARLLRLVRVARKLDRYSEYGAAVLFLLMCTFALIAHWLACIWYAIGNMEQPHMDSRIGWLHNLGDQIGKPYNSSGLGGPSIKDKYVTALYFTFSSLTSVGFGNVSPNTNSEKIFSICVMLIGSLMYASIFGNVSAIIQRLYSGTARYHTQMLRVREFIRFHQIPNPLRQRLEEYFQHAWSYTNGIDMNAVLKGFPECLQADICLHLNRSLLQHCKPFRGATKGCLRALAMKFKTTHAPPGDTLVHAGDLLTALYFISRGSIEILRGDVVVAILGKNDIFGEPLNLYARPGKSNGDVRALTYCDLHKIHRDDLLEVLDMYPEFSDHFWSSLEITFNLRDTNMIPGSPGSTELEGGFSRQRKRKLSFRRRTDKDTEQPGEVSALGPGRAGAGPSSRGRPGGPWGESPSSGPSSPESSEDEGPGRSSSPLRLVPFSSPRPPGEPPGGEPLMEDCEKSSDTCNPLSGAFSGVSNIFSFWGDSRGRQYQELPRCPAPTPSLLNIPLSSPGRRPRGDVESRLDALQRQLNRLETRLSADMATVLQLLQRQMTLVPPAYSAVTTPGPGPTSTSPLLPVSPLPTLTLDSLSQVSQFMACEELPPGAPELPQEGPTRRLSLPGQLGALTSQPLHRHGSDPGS

[3] = molecular target: Somatostatin receptor type 1 (Homo sapiens, UniProt P30872); test: Binding affinity to human SST1R
Somatostatin receptor type 1, sequence (P30872 whole entry): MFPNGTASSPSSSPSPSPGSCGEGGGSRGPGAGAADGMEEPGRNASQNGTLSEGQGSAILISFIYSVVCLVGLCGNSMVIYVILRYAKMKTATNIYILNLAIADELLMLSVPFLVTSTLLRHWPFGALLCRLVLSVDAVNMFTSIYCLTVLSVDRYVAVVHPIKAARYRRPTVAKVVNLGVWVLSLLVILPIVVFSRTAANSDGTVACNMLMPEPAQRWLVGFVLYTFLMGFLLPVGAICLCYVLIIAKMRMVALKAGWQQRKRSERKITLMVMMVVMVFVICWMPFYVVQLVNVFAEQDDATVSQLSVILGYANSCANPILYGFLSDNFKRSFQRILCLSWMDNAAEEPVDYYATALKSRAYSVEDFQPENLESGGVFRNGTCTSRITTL

[4] = molecular target: Somatostatin receptor type 2 (Homo sapiens, UniProt P30874); test: Binding affinity to human SST2R
Somatostatin receptor type 2, sequence (P30874 whole entry): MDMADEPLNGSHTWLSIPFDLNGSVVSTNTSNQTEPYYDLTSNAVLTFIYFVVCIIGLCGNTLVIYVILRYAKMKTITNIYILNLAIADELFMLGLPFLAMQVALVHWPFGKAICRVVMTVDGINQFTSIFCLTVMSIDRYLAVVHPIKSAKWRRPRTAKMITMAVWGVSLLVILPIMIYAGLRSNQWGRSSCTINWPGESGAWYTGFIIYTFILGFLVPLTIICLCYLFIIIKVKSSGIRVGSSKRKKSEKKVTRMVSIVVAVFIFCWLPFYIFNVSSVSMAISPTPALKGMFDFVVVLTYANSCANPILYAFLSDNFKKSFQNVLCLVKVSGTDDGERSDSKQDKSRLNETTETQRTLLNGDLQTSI

[5] = molecular target: Somatostatin receptor type 3 (Homo sapiens, UniProt P32745); test: Binding affinity to human SST3R
Somatostatin receptor type 3, sequence (P32745 whole entry): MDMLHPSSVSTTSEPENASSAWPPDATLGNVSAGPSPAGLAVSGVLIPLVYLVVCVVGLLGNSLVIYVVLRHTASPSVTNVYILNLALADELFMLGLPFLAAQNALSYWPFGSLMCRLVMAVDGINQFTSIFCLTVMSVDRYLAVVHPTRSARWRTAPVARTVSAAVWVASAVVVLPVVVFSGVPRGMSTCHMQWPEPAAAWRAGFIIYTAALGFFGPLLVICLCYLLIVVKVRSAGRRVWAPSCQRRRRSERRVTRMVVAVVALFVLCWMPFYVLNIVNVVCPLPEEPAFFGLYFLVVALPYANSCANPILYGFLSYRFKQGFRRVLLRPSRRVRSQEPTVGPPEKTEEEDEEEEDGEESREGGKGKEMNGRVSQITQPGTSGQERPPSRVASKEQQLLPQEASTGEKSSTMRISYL

[6] = molecular target: Somatostatin receptor type 4 (Homo sapiens, UniProt P31391); test: Binding affinity to human SST4R
Somatostatin receptor type 4, sequence (P31391 whole entry): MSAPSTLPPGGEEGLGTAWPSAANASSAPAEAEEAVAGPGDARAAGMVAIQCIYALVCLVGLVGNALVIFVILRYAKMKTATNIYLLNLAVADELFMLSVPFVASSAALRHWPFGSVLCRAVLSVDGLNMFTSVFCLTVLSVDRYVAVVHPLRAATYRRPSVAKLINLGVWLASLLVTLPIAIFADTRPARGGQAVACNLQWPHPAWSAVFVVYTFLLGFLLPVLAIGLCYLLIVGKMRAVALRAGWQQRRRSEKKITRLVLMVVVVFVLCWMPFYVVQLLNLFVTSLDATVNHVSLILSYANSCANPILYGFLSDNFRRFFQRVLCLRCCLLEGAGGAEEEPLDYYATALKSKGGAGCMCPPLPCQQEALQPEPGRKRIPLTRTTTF

[7] = molecular target: T1, Somatostatin receptor type 5; test: Antagonist activity at human SST5R expressed in CHO cells assessed as reversal of somatostatin-14 induced cAMP response; assay type: functional, cell-based
[8] = Solubility at pH 6.5 by lyophilisation solubility assay; assay type: physicochemical; conditions: buffer
[9] = Distribution coefficient, log D at pH 7.4; assay type: physicochemical; conditions: octanol/water
[10] = Passive membrane permeability by PAMPA; assay type: ADME; conditions: read-out: permeability
[11] = molecular target: Histamine H1 receptor (Homo sapiens, UniProt P35367); test: Binding affinity to histamine H1 receptor
Histamine H1 receptor, sequence (P35367 whole entry): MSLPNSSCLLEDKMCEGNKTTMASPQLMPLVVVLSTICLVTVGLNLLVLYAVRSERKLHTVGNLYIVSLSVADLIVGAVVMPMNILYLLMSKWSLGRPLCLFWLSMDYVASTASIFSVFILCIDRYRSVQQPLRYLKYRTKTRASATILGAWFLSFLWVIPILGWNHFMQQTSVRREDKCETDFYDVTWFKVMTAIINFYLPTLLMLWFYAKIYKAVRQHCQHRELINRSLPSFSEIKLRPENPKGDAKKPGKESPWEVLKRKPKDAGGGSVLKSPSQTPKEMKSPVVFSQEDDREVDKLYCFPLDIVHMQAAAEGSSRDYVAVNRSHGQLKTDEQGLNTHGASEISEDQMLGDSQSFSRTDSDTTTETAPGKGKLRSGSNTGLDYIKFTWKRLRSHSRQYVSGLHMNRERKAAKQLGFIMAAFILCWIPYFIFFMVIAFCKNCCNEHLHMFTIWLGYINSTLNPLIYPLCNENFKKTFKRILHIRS

T1 sequence (P35346 whole entry): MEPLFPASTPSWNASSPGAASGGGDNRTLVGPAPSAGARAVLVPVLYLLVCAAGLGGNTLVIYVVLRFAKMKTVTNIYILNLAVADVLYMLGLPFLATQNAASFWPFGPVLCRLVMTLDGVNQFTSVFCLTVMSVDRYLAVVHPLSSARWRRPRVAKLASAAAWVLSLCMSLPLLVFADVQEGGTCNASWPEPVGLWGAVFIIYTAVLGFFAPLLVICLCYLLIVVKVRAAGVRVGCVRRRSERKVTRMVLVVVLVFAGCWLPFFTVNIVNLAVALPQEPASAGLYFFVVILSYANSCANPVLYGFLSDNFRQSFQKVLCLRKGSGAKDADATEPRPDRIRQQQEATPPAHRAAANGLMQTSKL

Work on `COc1cc(CN2CCC(Nc3nc4ccccc4s3)CC2)ccc1O` yielded a Ki [1] of 5130 nM.
`COc1cc(CN2CCC(Nc3nc4ccccc4s3)CC2)c(OC)c2ccccc12` showed a Ki [1] of 683 nM.
With `CCOc1cc(CN2CCC(Nc3nc4ccccc4s3)CC2)ccc1O` the Ki [1] was 149 nM.
For `CCCOc1cc(CN2CCC(Nc3nc4ccccc4o3)CC2)ccc1OC`, the Ki [1] was 293 nM.
In the case of `Fc1ccc(Cn2c(NC3CCN(Cc4ccc5[nH]ccc5c4)CC3)nc3ccccc32)cc1`, the Ki [1] is reported as 3950 nM.
For `Fc1ccc(Cn2c(NC3CCN(Cc4ccccc4)CC3)nc3ccccc32)cc1`, the Ki [1] was 6120 nM.
`CCOc1cc(CN2CCC(Nc3nc4cc(S(N)(=O)=O)ccc4o3)CC2)ccc1OC` gave a Ki [1] of 185 nM and an IC50 [2] of 3500 nM.
With `Fc1ccc(Cn2c(NC3CCN(Cc4ccc5c(c4)CCO5)CC3)nc3ccccc32)cc1` the Ki [1] was 1630 nM.
With `COc1cc(CN2CCC(Nc3nc4ccccc4o3)CC2)c(OC)c2ccccc12` the Ki [1] was 794 nM.
`CCOc1cc(CN2CCC(Nc3nc4ccccc4o3)CC2)ccc1Cl` showed a Ki [1] of 113 nM.
With `CCOc1cc(CN2CCC(Nc3nc4ccccc4s3)CC2)ccc1OC` the Ki [1] was 326 nM.
`CCOc1cc(CN2CCC(Nc3nc4ccccc4o3)CC2)ccc1OC(F)(F)F` showed a Ki [1] of 524 nM.
For `Fc1ccc(Cn2c(NC3CCN(CCCc4ccccc4)CC3)nc3ccccc32)cc1`, the Ki [1] was > 10000 nM.
In the case of `Fc1ccc(Cn2c(NC3CCN(CCc4ccc(OC(F)(F)F)cc4)CC3)nc3ccccc32)cc1`, the Ki [1] is reported as > 10000 nM.
With `Fc1ccc(Cn2c(NC3CCN(CC4CCc5ccccc5C4)CC3)nc3ccccc32)cc1` (stereo unspecified) the Ki [1] was > 10000 nM.
For `CCOc1cc(CN2CCC(Nc3nc4cc(S(N)(=O)=O)ccc4o3)CC2)cc(OCC)c1N`, the Ki [1] was 13 nM, the Ki [3] was > 10000 nM and the Ki [4] was > 10000 nM. For the same molecule, the Ki [5] was > 10000 nM and the Ki [6] was > 10000 nM.
Molecule `CCOc1cc(CN2CCC(Nc3nc4ccccc4o3)CC2)ccc1O` has a Ki [1] of 66 nM.
In the case of `Fc1ccc(Cn2c(NC3CCN(CCc4ccccc4)CC3)nc3ccccc32)cc1`, the Ki [1] is reported as 5000 nM.
`COc1ccc(CN2CCC(Nc3nc4ccccc4o3)CC2)cc1OCC(C)C` gave a Ki [1] of 23 nM.
In the case of `Fc1ccc(CCN2CCC(Nc3nc4ccccc4n3Cc3ccc(F)cc3)CC2)cc1`, the Ki [1] is reported as > 10000 nM.
For `CCOc1cc(CN2CCC(Nc3nc4cc(S(N)(=O)=O)ccc4o3)CC2)ccc1Cl`, the Ki [1] was 17 nM.
With `Cc1cccc2c(CN3CCC(Nc4nc5ccccc5n4Cc4ccc(F)cc4)CC3)c[nH]c12` the Ki [1] was 1440 nM.
With `COc1ccc(CN2CCC(Nc3nc4ccccc4n3Cc3ccc(F)cc3)CC2)cc1` the Ki [1] was 3950 nM.
Molecule `COc1ccc(CN2CCC(Nc3nc4ccccc4s3)CC2)cc1OC` has a Ki [1] of 1790 nM.
For `CCOc1cc(CN2CCC(Nc3nc4ccccc4o3)CC2)ccc1C`, the Ki [1] was 37 nM.
In the case of `COc1ccc(CN2CCC(Nc3nc4ccccc4o3)CC2)cc1OC1CCCC1`, the Ki [1] is reported as 83 nM.
For `CCOc1cc(CN2CCC(Nc3nc4ccccc4o3)CC2)ccc1F`, the Ki [1] was 194 nM.
In the case of `CCOc1cc(CN2CCC(Nc3nc4ccccc4o3)CC2)ccc1OC`, the Ki [1] is reported as 121 nM, the IC50 [7] is reported as 740 nM and the solubility [8] is reported as 130 µg/mL (≈ 341 µM). The logD [9] was 2.92, the Papp [10] was 4.44 ×10⁻⁶ cm/s and the Ki [11] was 624 nM. The IC50 [2] was < 100 nM.
Molecule `COc1ccc(CCN2CCC(Nc3nc4ccccc4n3Cc3ccc(F)cc3)CC2)cc1` [ASTEMIZOLE] has a Ki [1] of 4070 nM.
Work on `COc1cc(CN2CCC(Nc3nc4ccccc4n3Cc3ccc(F)cc3)CC2)c(OC)c2ccccc12` yielded a Ki [1] of 1230 nM.
